Test results as given in PubChem BioAssay (NCI).
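Tested at 5 concentrations; 48 h exposure; 96-well plates; endpoints linearly interpolated, else capped at highest concentration. TGI marks complete inhibition of growth.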

Legend:
Experiment in all cases: NCI anticancer screen, dose series, 48 h
[1] = test system: TK-10 renal
[2] = test system: UO-31 renal
[3] = test system: SW-620 colon
[4] = test system: OVCAR-8 ovarian
[5] = test system: MDA-MB-435
[6] = test system: HCT-116 colon
[7] = test system: KM12 colon
[8] = test system: CCRF-CEM leukemia
[9] = test system: SF-539 CNS
[10] = test system: A498 renal
[11] = test system: UACC-257 melanoma
[12] = test system: HOP-62 NSCLC
[13] = test system: SF-295 CNS
[14] = test system: RPMI-8226 leukemia
[15] = test system: 786-0 renal
[16] = test system: ACHN renal
[17] = test system: OVCAR-3 ovarian
[18] = test system: SF-268 CNS
[19] = test system: HT29 colon
[20] = test system: NCI/ADR-RES ovarian
[21] = test system: UACC-62 melanoma
[22] = test system: U251 CNS
[23] = test system: SR leukemia
[24] = test system: SNB-19 CNS
[25] = test system: K-562 leukemia
[26] = test system: OVCAR-4 ovarian
[27] = test system: MCF7 breast
[28] = test system: DU-145 prostate
[29] = test system: MOLT-4 leukemia
[30] = test system: HL-60(TB) leukemia
[31] = test system: PC-3 prostate
[32] = test system: NCI-H226 lung
[33] = test system: T-47D breast
[34] = test system: NCI-H460 lung
[35] = test system: SK-MEL-5 melanoma
[36] = test system: COLO 205 colon
[37] = test system: RXF 393 renal
[38] = test system: HCT-15 colon
[39] = test system: EKVX NSCLC
[40] = test system: A549 NSCLC
[41] = test system: HOP-92 NSCLC
[42] = test system: HS 578T breast
[43] = test system: BT-549 breast
[44] = test system: MALME-3M melanoma
[45] = test system: MDA-MB-231 breast
[46] = test system: NCI-H23 lung
[47] = test system: IGROV1 ovarian
[48] = test system: NCI-H522 lung
[49] = test system: HCC-2998 colon
[50] = test system: SK-MEL-28 melanoma
[51] = test system: LOX IMVI melanoma
[52] = test system: SNB-75 CNS
[53] = test system: OVCAR-5 ovarian
[54] = test system: CAKI-1 renal
[55] = test system: M14 melanoma
[56] = test system: SK-MEL-2 melanoma
[57] = test system: SN12C renal
[58] = test system: SK-OV-3 ovarian

Cc1nc2ccc(F)cc2c(Cl)c1CCCl
TGI [1]: > 100 µM
TGI [2]: > 100 µM
TGI [3]: > 100 µM
TGI [4]: > 100 µM
TGI [5]: 82.5 µM
TGI [6]: 92.8 µM
TGI [7]: > 100 µM
TGI [8]: 48.4 µM
TGI [9]: > 100 µM
TGI [10]: > 100 µM
TGI [11]: > 100 µM
TGI [12]: > 100 µM
TGI [13]: > 100 µM
TGI [14]: > 100 µM
TGI [15]: > 100 µM
TGI [16]: > 100 µM
TGI [17]: > 100 µM
TGI [18]: > 100 µM
TGI [19]: > 100 µM
TGI [20]: > 100 µM
TGI [21]: 94.6 µM
TGI [22]: > 100 µM
TGI [23]: 44.9 µM
TGI [24]: > 100 µM
TGI [25]: 68.2 µM
TGI [26]: > 100 µM
TGI [27]: 90.1 µM
TGI [28]: > 100 µM
TGI [29]: 98.6 µM
TGI [30]: 35 µM
TGI [31]: > 100 µM
TGI [32]: > 100 µM
TGI [33]: > 100 µM
TGI [34]: > 100 µM
TGI [35]: 52.7 µM
TGI [36]: 47.2 µM
TGI [37]: 79.9 µM
TGI [38]: > 100 µM
TGI [39]: > 100 µM
TGI [40]: > 100 µM
TGI [41]: > 100 µM
TGI [42]: > 100 µM
TGI [43]: > 100 µM
TGI [44]: 87.6 µM
TGI [45]: 73.8 µM
TGI [46]: > 100 µM
TGI [47]: > 100 µM
TGI [48]: 93.6 µM
TGI [49]: 84.9 µM
TGI [50]: > 100 µM
TGI [51]: 82.8 µM
TGI [52]: > 100 µM

CCOC(=O)[C@@]1(C)CC(O)C(=O)N1C (some centres not stated)
TGI [1]: > 100 µM
TGI [2]: > 100 µM
TGI [3]: > 100 µM
TGI [4]: > 100 µM
TGI [5]: > 100 µM
TGI [6]: > 100 µM
TGI [53]: > 100 µM
TGI [7]: > 100 µM
TGI [8]: > 100 µM
TGI [9]: > 100 µM
TGI [11]: > 100 µM
TGI [12]: > 100 µM
TGI [13]: > 100 µM
TGI [14]: > 100 µM
TGI [15]: > 100 µM
TGI [16]: > 100 µM
TGI [54]: > 100 µM
TGI [17]: > 100 µM
TGI [18]: > 100 µM
TGI [19]: > 100 µM
TGI [20]: > 100 µM
TGI [55]: > 100 µM
TGI [21]: > 100 µM
TGI [22]: > 100 µM
TGI [23]: > 100 µM
TGI [24]: > 100 µM
TGI [26]: > 100 µM
TGI [27]: > 100 µM
TGI [28]: > 100 µM
TGI [29]: > 100 µM
TGI [30]: > 100 µM
TGI [31]: > 100 µM
TGI [32]: > 100 µM
TGI [33]: > 100 µM
TGI [35]: > 100 µM
TGI [36]: > 100 µM
TGI [37]: > 100 µM
TGI [38]: > 100 µM
TGI [39]: > 100 µM
TGI [56]: > 100 µM
TGI [40]: > 100 µM
TGI [41]: > 100 µM
TGI [42]: > 100 µM
TGI [57]: > 100 µM
TGI [43]: > 100 µM
TGI [58]: > 100 µM
TGI [44]: > 100 µM
TGI [45]: > 100 µM
TGI [46]: > 100 µM
TGI [47]: > 100 µM
TGI [48]: > 100 µM
TGI [49]: > 100 µM
TGI [50]: > 100 µM
TGI [51]: > 100 µM

O=C(C#Cc1ccccc1)C1=Cc2ccccc2OC1
TGI [1]: 3.58 µM
TGI [2]: 5.34 µM
TGI [3]: 9.84 µM
TGI [4]: 5.85 µM
TGI [5]: 12.5 µM
TGI [6]: 4.21 µM
TGI [53]: 15 µM
TGI [7]: 9.67 µM
TGI [8]: 0.528 µM
TGI [10]: 39.2 µM
TGI [11]: 8.23 µM
TGI [12]: 29.3 µM
TGI [13]: 48.3 µM
TGI [14]: 58.7 µM
TGI [15]: 6.17 µM
TGI [16]: 5.26 µM
TGI [54]: 3.47 µM
TGI [17]: 5.35 µM
TGI [18]: 12.5 µM
TGI [19]: 5.02 µM
TGI [20]: 14.4 µM
TGI [55]: 8.21 µM
TGI [21]: 4.26 µM
TGI [22]: > 100 µM
TGI [23]: > 100 µM
TGI [24]: 29.6 µM
TGI [25]: > 100 µM
TGI [26]: 8.9 µM
TGI [27]: 3.87 µM
TGI [28]: 20.7 µM
TGI [29]: > 100 µM
TGI [30]: > 100 µM
TGI [31]: 22.2 µM
TGI [32]: 8.36 µM
TGI [33]: > 61.1 µM
TGI [34]: 23.7 µM
TGI [35]: 4.89 µM
TGI [36]: 3.93 µM
TGI [37]: 9.78 µM
TGI [38]: 6.38 µM
TGI [39]: 6.12 µM
TGI [56]: 11.7 µM
TGI [40]: > 37.6 µM
TGI [42]: 23.8 µM
TGI [57]: > 100 µM
TGI [43]: 5.16 µM
TGI [58]: 30.9 µM
TGI [44]: 13.2 µM
TGI [45]: 10.5 µM
TGI [46]: 5.47 µM
TGI [47]: 6.37 µM
TGI [48]: 3.42 µM
TGI [49]: 19.6 µM
TGI [50]: > 65.7 µM
TGI [51]: 6.32 µM
TGI [52]: 13.3 µM
